Reference: the supplement of paper PMC10307832

Assays:
Test in all cases: relative viability (nuclei count vs DMSO), 5 days (fraction); higher = more cells survive
[1] = system: NCI-H1734
Procedure, shortened: (§1)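 After 5 days of treatment, lung cancer cells in 1536-well plates were fixed and stained in a single step (final 0.05% Triton X-100, 1% formaldehyde, 1 ug/ml Hoechst) and their nuclei counted on 4× images. Treatment had been applied by pin tool the day after seeding as one drug alone or as a fixed anchor-drug dose with five library-drug doses (not always all listed) in √10 steps. Relative viability is the nuclei count of treated wells divided by that of vehicle wells, and values are medians of duplicate plates.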

[2] = system: NCI-H838
Procedure, shortened: as §1

[3] = system: COR-L23
Procedure, shortened: as §1

[4] = system: NCI-H1650
Procedure, shortened: as §1

[5] = system: NCI-H1975
Procedure, shortened: as §1

[6] = system: HCC-366
Procedure, shortened: as §1

[7] = system: NCI-H2023
Procedure, shortened: as §1

[8] = system: LOU-NH91
Procedure, shortened: as §1

[9] = system: NCI-H1651
Procedure, shortened: as §1

[10] = system: NCI-H2085
Procedure, shortened: as §1

[11] = system: LU99A
Procedure, shortened: as §1

[12] = system: NCI-H1355
Procedure, shortened: as §1

[13] = system: BEN
Procedure, shortened: as §1

[14] = system: NCI-H1437
Procedure, shortened: as §1

[15] = system: CAL-12T
Procedure, shortened: as §1

[16] = system: NCI-H2342
Procedure, shortened: as §1

[17] = system: NCI-H460
Procedure, shortened: as §1

[18] = system: NCI-H1793
Procedure, shortened: as §1

[19] = system: SK-LU-1
Procedure, shortened: as §1

[20] = system: NCI-H441
Procedure, shortened: as §1

[21] = system: NCI-H358
Procedure, shortened: as §1

SMILES: CCN(CC)CCCCNc1ncc2cc(-c3cc(OC)cc(OC)c3)c(NC(=O)NC(C)(C)C)nc2n1 + Cc1cc(Nc2cc(N3CCN(C)CC3)nc(Sc3ccc(NC(=O)C4CC4)cc3)n2)n[nH]1 [Tozasertib] (partner 0.1 µM)
- relative viability ([1]; first compound 0.01 µM): 0.136
- relative viability ([1]; first compound 0.03162 µM): 0.257
- relative viability ([1]; first compound 0.1 µM): 0.3
- relative viability ([1]; first compound 0.3162 µM): 0.244
- relative viability ([1]; first compound 1 µM): 0.243
- relative viability ([2]; first compound 0.01 µM): 0.315
- relative viability ([2]; first compound 0.03162 µM): 0.282
- relative viability ([2]; first compound 0.1 µM): 0.259
- relative viability ([2]; first compound 0.3162 µM): 0.271
- relative viability ([2]; first compound 1 µM): 0.205
- relative viability ([3]; first compound 0.01 µM): 0.226
- relative viability ([3]; first compound 0.03162 µM): 0.205
- relative viability ([3]; first compound 0.1 µM): 0.157
- relative viability ([3]; first compound 0.3162 µM): 0.206
- relative viability ([3]; first compound 1 µM): 0.171
- relative viability ([4]; first compound 0.01 µM): 0.362
- relative viability ([4]; first compound 0.03162 µM): 0.305
- relative viability ([4]; first compound 0.1 µM): 0.392
- relative viability ([4]; first compound 0.3162 µM): 0.361
- relative viability ([4]; first compound 1 µM): 0.247
- relative viability ([5]; first compound 0.01 µM): 0.876
- relative viability ([5]; first compound 0.03162 µM): 0.859
- relative viability ([5]; first compound 0.1 µM): 1.1
- relative viability ([5]; first compound 0.3162 µM): 0.992
- relative viability ([5]; first compound 1 µM): 0.407
- relative viability ([6]; first compound 0.01 µM): 0.112
- relative viability ([6]; first compound 0.03162 µM): 0.135
- relative viability ([6]; first compound 0.1 µM): 0.102
- relative viability ([6]; first compound 0.3162 µM): 0.107
- relative viability ([6]; first compound 1 µM): 0.0931
- relative viability ([7]; first compound 0.01 µM): 0.323
- relative viability ([7]; first compound 0.03162 µM): 0.428
- relative viability ([7]; first compound 0.1 µM): 0.401
- relative viability ([7]; first compound 0.3162 µM): 0.41
- relative viability ([7]; first compound 1 µM): 0.222
- relative viability ([8]; first compound 0.01 µM): 0.613
- relative viability ([8]; first compound 0.03162 µM): 0.684
- relative viability ([8]; first compound 0.1 µM): 0.697
- relative viability ([8]; first compound 0.3162 µM): 0.677
- relative viability ([8]; first compound 1 µM): 0.574
- relative viability ([9]; first compound 0.01 µM): 0.747
- relative viability ([9]; first compound 0.03162 µM): 0.716
- relative viability ([9]; first compound 0.1 µM): 0.907
- relative viability ([9]; first compound 0.3162 µM): 0.714
- relative viability ([9]; first compound 1 µM): 0.661
- relative viability ([10]; first compound 0.01 µM): 0.819
- relative viability ([10]; first compound 0.03162 µM): 0.762
- relative viability ([10]; first compound 0.1 µM): 0.823
- relative viability ([10]; first compound 0.3162 µM): 0.729
- relative viability ([10]; first compound 1 µM): 0.639
- relative viability ([11]; first compound 0.01 µM): 0.283
- relative viability ([11]; first compound 0.03162 µM): 0.281
- relative viability ([11]; first compound 0.1 µM): 0.324
- relative viability ([11]; first compound 0.3162 µM): 0.269
- relative viability ([11]; first compound 1 µM): 0.265
- relative viability ([12]; first compound 0.01 µM): 0.547
- relative viability ([12]; first compound 0.03162 µM): 0.559
- relative viability ([12]; first compound 0.1 µM): 0.52
- relative viability ([12]; first compound 0.3162 µM): 0.531
- relative viability ([12]; first compound 1 µM): 0.411
- relative viability ([13]; first compound 0.01 µM): 0.371
- relative viability ([13]; first compound 0.03162 µM): 0.508
- relative viability ([13]; first compound 0.1 µM): 0.515
- relative viability ([13]; first compound 0.3162 µM): 0.489
- relative viability ([13]; first compound 1 µM): 0.507
- relative viability ([14]; first compound 0.01 µM): 0.426
- relative viability ([14]; first compound 0.03162 µM): 0.403
- relative viability ([14]; first compound 0.1 µM): 0.374
- relative viability ([14]; first compound 0.3162 µM): 0.46
- relative viability ([14]; first compound 1 µM): 0.335
- relative viability ([15]; first compound 0.01 µM): 0.28
- relative viability ([15]; first compound 0.03162 µM): 0.287
- relative viability ([15]; first compound 0.1 µM): 0.368
- relative viability ([15]; first compound 0.3162 µM): 0.257
- relative viability ([15]; first compound 1 µM): 0.293
- relative viability ([16]; first compound 0.01 µM): 0.448
- relative viability ([16]; first compound 0.03162 µM): 0.513
- relative viability ([16]; first compound 0.1 µM): 0.476
- relative viability ([16]; first compound 0.3162 µM): 0.469
- relative viability ([16]; first compound 1 µM): 0.537
- relative viability ([17]; first compound 0.01 µM): 0.458
- relative viability ([17]; first compound 0.03162 µM): 0.66
- relative viability ([17]; first compound 0.1 µM): 0.477
- relative viability ([17]; first compound 0.3162 µM): 0.474
- relative viability ([17]; first compound 1 µM): 0.311
- relative viability ([18]; first compound 0.01 µM): 0.311
- relative viability ([18]; first compound 0.03162 µM): 0.367
- relative viability ([18]; first compound 0.1 µM): 0.362
- relative viability ([18]; first compound 0.3162 µM): 0.348
- relative viability ([18]; first compound 1 µM): 0.241
- relative viability ([19]; first compound 0.01 µM): 0.306
- relative viability ([19]; first compound 0.03162 µM): 0.359
- relative viability ([19]; first compound 0.1 µM): 0.388
- relative viability ([19]; first compound 0.3162 µM): 0.363
- relative viability ([19]; first compound 1 µM): 0.259
- relative viability ([20]; first compound 0.01 µM): 0.544
- relative viability ([20]; first compound 0.03162 µM): 0.714
- relative viability ([20]; first compound 0.1 µM): 0.821
- relative viability ([20]; first compound 0.3162 µM): 0.616
- relative viability ([20]; first compound 1 µM): 0.597
- relative viability ([21]; first compound 0.01 µM): 0.108
- relative viability ([21]; first compound 0.03162 µM): 0.0902
- relative viability ([21]; first compound 0.1 µM): 0.115
- relative viability ([21]; first compound 0.3162 µM): 0.104
- relative viability ([21]; first compound 1 µM): 0.101
